# Experimental data: ChEMBL document CHEMBL1141004, “N-((8-hydroxy-5-substituted-quinolin-7-yl)(phenyl)methyl)-2-phenyloxy/amino-acetamide inhibitors of ADAMTS-5 (Aggrecanase-2)” (Bioorg Med Chem Lett, 2008)
# Columns and labels:
# [1] = target: Cytochrome P450 3A4 (Homo sapiens, UniProt P08684); assay: Inhibition of CYP3A4 at 30 uM by FRET assay; type: ADME
# [2] = Metabolic stability in rat liver microsomes assessed as half life; type: ADME, Microsome
# Sequence of Cytochrome P450 3A4 (P08684 whole entry): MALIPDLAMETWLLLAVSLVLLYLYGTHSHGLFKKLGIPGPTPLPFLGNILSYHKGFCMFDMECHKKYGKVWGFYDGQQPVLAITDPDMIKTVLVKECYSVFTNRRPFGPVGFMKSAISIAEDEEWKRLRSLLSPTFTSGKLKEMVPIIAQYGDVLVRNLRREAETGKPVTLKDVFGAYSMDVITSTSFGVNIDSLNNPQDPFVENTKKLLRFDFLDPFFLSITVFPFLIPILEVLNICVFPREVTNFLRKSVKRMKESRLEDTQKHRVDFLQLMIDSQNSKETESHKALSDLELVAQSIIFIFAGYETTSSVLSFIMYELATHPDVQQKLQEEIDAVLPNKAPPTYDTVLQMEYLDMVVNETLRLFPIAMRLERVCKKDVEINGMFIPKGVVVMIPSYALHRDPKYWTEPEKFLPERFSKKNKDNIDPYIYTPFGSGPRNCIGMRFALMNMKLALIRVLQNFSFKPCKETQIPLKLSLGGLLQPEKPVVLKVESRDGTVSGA
smiles,measurement,setting,value
O=C(COc1ccccc1)NC(c1ccccc1F)c1cc(Cl)c2cccnc2c1O (centres undefined),inhibition (INH),[1],24%
N#Cc1ccccc1C(NC(=O)COc1ccccc1)c1cc(Cl)c2cccnc2c1O (centres undefined),inhibition (INH),[1],26%
O=C(COc1ccc(Cl)cc1)NC(c1ccccc1)c1cc(Cl)c2cccnc2c1O (centres undefined),inhibition (INH),[1],2%
Cc1ccc(C(NC(=O)COc2ccccc2)c2cc(Cl)c3cccnc3c2O)cc1 (centres undefined),inhibition (INH),[1],45%
Cc1cc(C(NC(=O)COc2ccccc2)c2ccccc2Cl)c(O)c2ncccc12 (centres undefined),inhibition (INH),[1],55%
Cc1cc(OCC(=O)NC(c2ccccc2Cl)c2cc(Cl)c3cccnc3c2O)ccc1Cl (centres undefined),inhibition (INH),[1],30%
Cc1ccc(OCC(=O)NC(c2ccccc2)c2cc(Cl)c3cccnc3c2O)cc1 (centres undefined),inhibition (INH),[1],69%
O=C(COc1ccccc1)NC(c1ccccc1)c1cc(F)c2cccnc2c1O (centres undefined),inhibition (INH),[1],22%
CN(CC(=O)NC(c1cccc(F)c1)c1cc(Cl)c2cccnc2c1O)Cc1ccccc1 (centres undefined),inhibition (INH),[1],32%
same,half-life,[2],16 min
CN(CC(=O)NC(c1cccc([N+](=O)[O-])c1)c1cc(Cl)c2cccnc2c1O)Cc1ccccc1 (centres undefined),inhibition (INH),[1],20%
O=C(COc1cccnc1)NC(c1cccc([N+](=O)[O-])c1)c1cc(Cl)c2cccnc2c1O (centres undefined),inhibition (INH),[1],67%
COc1ccc(C(NC(=O)COc2cccnc2)c2cc(Cl)c3cccnc3c2O)cc1 (centres undefined),inhibition (INH),[1],33%
same,half-life,[2],16 min
CN(CC(=O)NC(c1ccccc1Cl)c1cc(Cl)c2cccnc2c1O)c1ccccc1 (centres undefined),inhibition (INH),[1],34%
O=C(COc1ccccc1)NC(c1cccc(F)c1)c1cc(Cl)c2cccnc2c1O (centres undefined),inhibition (INH),[1],57%
CN(C)c1cccc(OCC(=O)NC(c2cccc(F)c2)c2cc(Cl)c3cccnc3c2O)c1 (centres undefined),inhibition (INH),[1],53%
O=C(COc1ccccc1)NC(c1ccccc1Cl)c1cc([N+](=O)[O-])c2cccnc2c1O (centres undefined),inhibition (INH),[1],35%
O=C(COCc1ccccc1)NC(c1cccc(F)c1)c1cc(Cl)c2cccnc2c1O (centres undefined),inhibition (INH),[1],46%
same,half-life,[2],24 min
O=C(COc1ccccc1)NC(c1ccc([N+](=O)[O-])cc1)c1cc(Cl)c2cccnc2c1O (centres undefined),inhibition (INH),[1],13%
O=C(CNCc1ccccc1)NC(c1ccccc1Cl)c1cc(Cl)c2cccnc2c1O (centres undefined),inhibition (INH),[1],36%
O=C(COc1cc(Cl)cc(Cl)c1)NC(c1cccc([N+](=O)[O-])c1)c1cc(Cl)c2cccnc2c1O (centres undefined),inhibition (INH),[1],20%
CC(=O)c1ccc(NCC(=O)NC(c2ccc(C)cc2)c2cc(Cl)c3cccnc3c2O)cc1 (centres undefined),inhibition (INH),[1],45%
same,half-life,[2],4 min
O=C(COc1ccccc1)NC(c1ccccc1)c1cc([N+](=O)[O-])c2cccnc2c1O (centres undefined),inhibition (INH),[1],20%
O=C(COc1ccccc1)NC(c1ccccc1)c1ccc2cccnc2c1O (centres undefined),inhibition (INH),[1],56%
Cc1ccc(C(NC(=O)CNc2ccc(Cl)c(C)c2)c2cc(Cl)c3cccnc3c2O)cc1 (centres undefined),inhibition (INH),[1],12%
Cc1ccc(C(NC(=O)CNc2cccc(N(C)C)c2)c2cc(Cl)c3cccnc3c2O)cc1 (centres undefined),inhibition (INH),[1],37%
Cc1ccc(C(NC(=O)COCc2ccccc2)c2cc(Cl)c3cccnc3c2O)cc1 (centres undefined),inhibition (INH),[1],45%
CN(C)c1cccc(OCC(=O)NC(c2ccccc2Cl)c2cc(Cl)c3cccnc3c2O)c1 (centres undefined),inhibition (INH),[1],38%
O=C(COc1ccccc1)NC(c1ccccc1[N+](=O)[O-])c1cc(Cl)c2cccnc2c1O (centres undefined),inhibition (INH),[1],38%
same,half-life,[2],5 min
Cc1cc(NCC(=O)NC(c2ccccc2Cl)c2cc(Cl)c3cccnc3c2O)ccc1Cl (centres undefined),inhibition (INH),[1],11%
same,half-life,[2],8 min
CC(=O)c1ccc(NCC(=O)NC(c2cccc([N+](=O)[O-])c2)c2cc(Cl)c3cccnc3c2O)cc1 (centres undefined),inhibition (INH),[1],27%
Cc1ccc(C(NC(=O)CNc2ccc(C#N)cc2)c2cc(Cl)c3cccnc3c2O)cc1 (centres undefined),inhibition (INH),[1],29%
O=C(COc1ccccc1)NC(c1cccc([N+](=O)[O-])c1)c1cc(Br)c2cccnc2c1O (centres undefined),inhibition (INH),[1],38%
COc1ccc(C(NC(=O)COc2ccc(C)cc2)c2cc(Cl)c3cccnc3c2O)cc1 (centres undefined),inhibition (INH),[1],78%
Cc1cc(NCC(=O)NC(c2cccc([N+](=O)[O-])c2)c2cc(Cl)c3cccnc3c2O)ccc1Cl (centres undefined),inhibition (INH),[1],17%
Cc1ccc(C(NC(=O)CNCc2ccccc2)c2cc(Cl)c3cccnc3c2O)cc1 (centres undefined),inhibition (INH),[1],29%
same,half-life,[2],10 min
COc1ccc(C(NC(=O)COc2cccc(N(C)C)c2)c2cc(Cl)c3cccnc3c2O)cc1 (centres undefined),inhibition (INH),[1],56%
Cc1ccccc1C(NC(=O)COc1ccccc1)c1cc(Cl)c2cccnc2c1O (centres undefined),inhibition (INH),[1],10%
Cc1ccc(C(NC(=O)CN(C)Cc2ccccc2)c2cc(Cl)c3cccnc3c2O)cc1 (centres undefined),inhibition (INH),[1],30%
same,half-life,[2],16 min
Cc1cc(NCC(=O)NC(c2cccc(F)c2)c2cc(Cl)c3cccnc3c2O)ccc1Cl (centres undefined),inhibition (INH),[1],14%
COc1ccc(C(NC(=O)COc2ccc(NC(C)=O)cc2)c2cc(Cl)c3cccnc3c2O)cc1 (centres undefined),inhibition (INH),[1],37%
O=C(COc1ccccc1)NC(c1ccc(Cl)cc1)c1cc(Cl)c2cccnc2c1O (centres undefined),inhibition (INH),[1],38%
O=C(COc1ccccc1)NC(c1ccccc1)c1cc(Cl)c2cccnc2c1O (centres undefined),inhibition (INH),[1],5%
CC(=O)Nc1ccc(OCC(=O)NC(c2ccccc2Cl)c2cc(Cl)c3cccnc3c2O)cc1 (centres undefined),inhibition (INH),[1],4%
O=C(COc1cccnc1)NC(c1cccc(F)c1)c1cc(Cl)c2cccnc2c1O (centres undefined),inhibition (INH),[1],35%
CN(CC(=O)NC(c1ccccc1Cl)c1cc(Cl)c2cccnc2c1O)Cc1ccccc1 (centres undefined),inhibition (INH),[1],16%
same,half-life,[2],5 min
Cc1ccc(C(NC(=O)CN(C)c2ccccc2)c2cc(Cl)c3cccnc3c2O)cc1 (centres undefined),inhibition (INH),[1],20%
same,half-life,[2],6 min
Cc1cc(C(NC(=O)COc2ccccc2)c2cccc([N+](=O)[O-])c2)c(O)c2ncccc12 (centres undefined),inhibition (INH),[1],33%
same,half-life,[2],6 min
COc1ccc(C(NC(=O)COc2ccccc2)c2cc(Cl)c3cccnc3c2O)cc1 (centres undefined),inhibition (INH),[1],54%
O=C(COc1ccccc1)NC(c1ccccc1C(F)(F)F)c1cc(Cl)c2cccnc2c1O (centres undefined),inhibition (INH),[1],37%
COc1ccc(C(NC(=O)COc2ccc(Oc3ccccc3)cc2)c2cc(Cl)c3cccnc3c2O)cc1 (centres undefined),inhibition (INH),[1],21%
CC(C)(C)c1ccc(OCC(=O)NC(c2ccccc2Cl)c2cc(Cl)c3cccnc3c2O)cc1 (centres undefined),inhibition (INH),[1],10%
O=C(CNCc1ccccc1)NC(c1cccc(F)c1)c1cc(Cl)c2cccnc2c1O (centres undefined),inhibition (INH),[1],32%
CC(=O)Nc1ccc(NCC(=O)NC(c2cccc([N+](=O)[O-])c2)c2cc(Cl)c3cccnc3c2O)cc1 (centres undefined),inhibition (INH),[1],8%
same,half-life,[2],30 min
O=C(COc1ccccc1)NC(c1ccccc1Cl)c1cc(Br)c2cccnc2c1O (centres undefined),inhibition (INH),[1],33%
CC(=O)c1ccc(OCC(=O)NC(c2cccc([N+](=O)[O-])c2)c2cc(Cl)c3cccnc3c2O)cc1 (centres undefined),inhibition (INH),[1],18%
CN(CC(=O)NC(c1cccc(F)c1)c1cc(Cl)c2cccnc2c1O)c1ccccc1 (centres undefined),inhibition (INH),[1],41%
CC(=O)Nc1ccc(OCC(=O)NC(c2cccc(F)c2)c2cc(Cl)c3cccnc3c2O)cc1 (centres undefined),inhibition (INH),[1],31%
